Reference: US6444644B1, “Anticoagulant peptide fragments derived from apolipoprotein B-100” (University College London, priority 1996, dated 2002)
No end group written: not given here.

Key:
[1] = molecular target: T1, thromboplastin, reconstituted in phosphatidylcholine (Homo sapiens, UniProt P13726); experiment: Inhibition of delipidated thromboplastin reconstituted in phosphatidylcholine; assay type: biochemical; settings: 500 nM sample, 37° C., 30 min
T1 construct: purchased Gamidor Ltd. (Oxfordshire, U.K.)
Description: In other experiments, recombinant thromboplastin (1 mg/ml) was delipidated with chloroform/methanol as described previously, to remove phosphatidylserine and other lipids and reconstituted with phosphatidylcholine (1 mg/ml) to differentiate between the effects of the prepared samples on the protein moiety of thromboplastin and any effects on the thromboplastin-associated phosphatidylserine. […] The percentage inhibition was calculated against the control sample.
Recombinant thromboplastin was delipidated to remove phosphatidylserine and other lipids and reconstituted at 1 mg/ml with phosphatidylcholine (1 mg/ml). […] The % Inhibition was calculated against the control. The data were obtained from 3 separate experiments.

[2] = system: factor VII/thromboplastin; experiment: Effect on activation and activity of factor VII (clotting in factor VII deficient plasma); assay type: biochemical
Description: In order to assess whether the action of KRAD-14 peptide was directed to the proteolytic activity of factor VIIa/thromboplastin or the activation of factor VII by interaction with thromboplastin, first thromboplastin (200 nM) and factor VII (200 nM) were incubated for 10 min in the presence of 25 mM CaCl2, prior to addition of KRAD-14 peptide and a further 10 min incubation. The samples were then assayed by addition to factor VII deficient plasma and measuring the clotting time. Appropriate controls devoid of KRAD-14 peptide were included in each experiment.
In order to assess whether the action of KRAD-14 peptide was directed to the proteolytic activity of factor VIIa/thromboplastin or the activation of factor VII by interaction with thromboplastin, first thromboplastin (200 nM) and factor VII (200 nM) were incubated for 10 min in the presence of 25 mM CaCl2, prior to addition of […] (500 nM) and a further 10 min incubation. In the second experiment thromboplastin, factor VII and factor Xa (100 nM) were pre-incubated for 10 min in the presence of 25 mM CaCl2, prior to addition of KRAD-14 peptide and a further 10 min incubation. The samples were then assayed by addition to factor VII deficient plasma and measuring the clotting time. […] Conversely, it was able to inhibit the activation of the pro-enzyme (inhibition=74%+8) (Table 2). […]

[3] = molecular target: T2, thromboplastin (Homo sapiens, UniProt P13726); experiment: Stability of the inhibitory effect of KRAD-14 following reconstitution; assay type: physicochemical
T2 construct: purchased Gamidor Ltd. (Oxfordshire, U.K.)
Description: However, KRAD-14 was effective at concentration as low as 50 nM. Moreover, the inhibition was unstable and completely disappeared after approximately 8 min following reconstitution. This deterioration was partially stabilised by adjusting the pH and addition of 5 nM bovine serum albumin as a stabiliser. However, the inhibitory effect deteriorated rapidly, completely disappearing after 15 min, following reconstitution.

[4] = system: platelets; experiment: Activation of platelets by thrombin; assay type: cell-based
[5] = molecular target: factor V; experiment: Influence on factor V procoagulant activity (factor V-deficient plasma); assay type: biochemical; settings: factor V 1 μM, 37° C., preactivated factor V deficient plasma; read-out: Kdapp, inhibition of coagulation upon pre-incubation with factor V
Description: Samples (1 ml) of either KRAD-14 peptide (500 nM) or the control peptide (500 nM) were incubated with pre-activated factor V (100 nM) at 37° C. and the factor V activity measured at the beginning and at intervals up to 60 min as follows. The procoagulant activity of factor V was measured by the addition of 100 μl of the sample to factor V-deficient plasma (100 μl) pre-activated by incubation (2 min) with thromboplastin (200 nM) in the presence of CACl2 (25 mM), and measuring the clotting time. The activity was measured against a standard curve and the percentage inhibition calculated against the initial factor V activity. The curves are typical of data from three separate experiments.
Three 1 ml samples containing recombinant KRAD-14 peptide (20 (♦) 40 (▾) and 80 (▪) nM) were mixed with factor V (1 μM). 100 μl of the each sample was removed immediately and assayed for […] by addition to factor V-deficient plasma, pre-activated by incubation (2 min) with thromboplastin (200 nM) in the presence of CaCl2 (25 mM), and measuring the clotting time. The rest of the samples were incubated at 37° C. and further 100 μl samples were removed at intervals up to 40 min and measured as before. The activity was measured against a standard curve and the percentage inhibition calculated against the initial factor V activity. The curves are typical of data from 3 separate experiments.

[6] = molecular target: T2, thromboplastin; experiment: Inhibition of thromboplastin in the presence of plasma; assay type: biochemical
Description: […] The samples were then assayed by addition of 100 μl of […] CaCl2 solution and measurement on the coagulometer. The percentage inhibition in each case calculated against a similarly treated sample, containing thromboplastin only.

[7] = molecular target: T2, thromboplastin; experiment: Effect of KRAD-14 concentration on thromboplastin inhibition (one-stage prothrombin time assay); assay type: biochemical
Description: The synthetic KRAD-14 peptide was reconstituted in distilled water at 1 mM. Aliquots of recombinant thromboplastin were incubated, at 37° C. with a KRAD-14 at concentration range 10-5000 nM (final concentration) for 1 min prior to assaying using the one-stage prothrombin time assay. In addition, samples of thromboplastin (10 U/ml) were incubated with synthetic KRAD-14 at concentrations ranging from 1-100 μM (final concentration) prior to assaying using the one-stage prothrombin time assay.
Aliquots of recombinant thromboplastin were incubated, at 37° C. with a KRAD-14 at concentration range 10-5000 nM (final concentration) for 1 min prior to assaying using the one-stage prothrombin time assay. The percentage inhibition was calculated as 100×([…])/Initial activity. The experiment was performed in triplicate.
Samples of thromboplastin (10 U/ml) were incubated with synthetic KRAD-14 concentration ranging 1-100 μM (final concentration) prior to assaying using the one-stage prothrombin time assay. The percentage inhibition was calculated as 100×([…])/Initial activity. The experiment was performed in triplicate.
Aliquots (1 ml) of recombinant thromboplastin (100 nM) were incubated at 37° C. with a KRAD-14 peptide at concentration range 50 (♦), 100 (▾), 200 (▪), 300 (⋄) and 500 nM (□) (final concentration). 100 μl of the each sample was removed immediately and assayed for thromboplastin activity, by means of the one-stage prothrombin time assay. The rest of the samples were incubated at 37° C. and further 100 μl samples were removed at intervals up to 40 min and measured. The percentage inhibition was calculated as 100×(Initial activity-Residual activity)/Initial activity. The data were obtained from 3 separate experiments.

T2 sequence (P13726 33-295): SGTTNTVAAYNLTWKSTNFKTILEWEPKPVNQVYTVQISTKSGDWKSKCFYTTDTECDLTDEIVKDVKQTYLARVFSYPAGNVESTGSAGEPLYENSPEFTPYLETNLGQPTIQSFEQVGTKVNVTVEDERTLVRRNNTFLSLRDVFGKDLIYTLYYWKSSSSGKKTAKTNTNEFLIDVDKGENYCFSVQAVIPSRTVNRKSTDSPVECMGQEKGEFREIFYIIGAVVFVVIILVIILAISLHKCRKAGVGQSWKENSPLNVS
T1 sequence (P13726 33-295): as above

KAQSKKNKHRHSTT [KRAD-14]
inhibition at 0.5 µM ([1]; against distilled water control): > 99%
% Inhibition ([1]; against distilled water control, listed as Recombinant KRAD-14 peptide): 99%
Procoagulant Activity ([1]; distilled water control 4.70 U/ml): (0.05 U/ml)
inhibition of the activity of factor VIIa ([2]; peptide 500 nM added after pre-incubation, further 10 min, factor VII deficient plasma): 12%
inhibition of the activation of the pro-enzyme (factor VII) ([2]; thromboplastin 200 nM, factor VII 200 nM, 25 mM CaCl2, peptide 500 nM, 10 min): 74%
time after reconstitution at which the inhibition completely disappeared ([3]; no stabiliser): approximately 8 min
time after reconstitution at which the inhibitory effect completely disappeared ([3]; pH adjusted and 5 nM bovine serum albumin added as a stabiliser): 15 min
effect on the activation of platelets by thrombin [4]: seems to affect the activation of platelets by thrombin
Kd [5]: 285 nM
influence of plasma on the ability to inhibit thromboplastin activity (in words) ([6]; plasma included during the incubation prior to assaying, peptide 500 nM): did not significantly affect
inhibition of thromboplastin activity in the presence of plasma ([6]; plasma present, 37° C., 2 min incubation): 74%
lowest concentration effective in inhibiting thromboplastin ([7]; 1 min preincubation at 37° C.): 50 nM
inhibition of thromboplastin compared with the recombinant peptide (in words) ([7]; synthetic peptide): inhibitory towards thromboplastin with similar effectiveness as the recombinant peptide
Kd ([7]; thromboplastin 100 nM, KRAD-14 peptide 1-5000 nM, 1 min at 37° C., read-out: Kdapp, inhibition of thromboplastin): 37 nM
